“Also recorded” adds a separate entry of the source. Like-named read-outs stand apart in the source and are kept apart here.
Columns and labels:
[1] = molecular target: endopeptidase (LC) of botulinum neurotoxin serotype A (BoNTA) (Clostridium botulinum, UniProt P0DPI0); experiment: biochemical; conditions: for inhibition at 100 µM: read-out: % Inhibition at 100 μM, BoNTA LC
[2] = molecular target: endopeptidase (LC) of botulinum neurotoxin serotype B (BoNTB) (Clostridium botulinum, UniProt P10844); experiment: biochemical; format: biochemical; conditions: for inhibition at 100 µM: read-out: % Inhibition at 100 μM, BoNTB LC
Sequence of endopeptidase (LC) of botulinum neurotoxin serotype B (BoNTB) (P10844 2-441 limits assumed): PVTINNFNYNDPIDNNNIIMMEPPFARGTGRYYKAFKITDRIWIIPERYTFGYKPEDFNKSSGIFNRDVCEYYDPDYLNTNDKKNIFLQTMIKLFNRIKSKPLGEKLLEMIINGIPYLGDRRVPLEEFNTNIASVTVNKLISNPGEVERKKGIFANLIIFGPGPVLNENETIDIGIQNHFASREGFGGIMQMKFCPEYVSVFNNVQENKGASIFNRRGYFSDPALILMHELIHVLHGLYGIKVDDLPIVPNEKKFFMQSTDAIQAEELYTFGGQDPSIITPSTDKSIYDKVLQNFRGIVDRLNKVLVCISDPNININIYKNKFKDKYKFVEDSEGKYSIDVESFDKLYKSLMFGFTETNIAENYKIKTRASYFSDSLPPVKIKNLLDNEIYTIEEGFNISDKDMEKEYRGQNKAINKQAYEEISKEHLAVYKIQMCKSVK

BoNTA light chain = BoNTA light chain (Clostridium botulinum, UniProt P0DPI0); experiment: biochemical
Sequence of BoNTA light chain (P0DPI0 2-448 limits assumed): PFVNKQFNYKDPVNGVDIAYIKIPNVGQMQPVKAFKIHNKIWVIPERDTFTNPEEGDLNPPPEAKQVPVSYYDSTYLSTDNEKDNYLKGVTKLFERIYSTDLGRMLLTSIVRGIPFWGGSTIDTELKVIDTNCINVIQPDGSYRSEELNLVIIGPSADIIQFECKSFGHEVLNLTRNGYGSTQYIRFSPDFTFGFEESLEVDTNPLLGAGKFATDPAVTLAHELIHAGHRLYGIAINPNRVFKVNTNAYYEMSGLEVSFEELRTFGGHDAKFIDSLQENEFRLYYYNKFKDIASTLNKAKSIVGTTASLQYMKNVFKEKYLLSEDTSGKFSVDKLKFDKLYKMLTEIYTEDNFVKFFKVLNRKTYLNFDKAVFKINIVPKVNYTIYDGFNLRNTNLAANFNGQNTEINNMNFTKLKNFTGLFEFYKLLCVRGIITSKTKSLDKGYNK

Sequence of endopeptidase (LC) of botulinum neurotoxin serotype A (BoNTA) (P0DPI0 2-448 limits assumed): as above

Row | Compound | inhibition of the endopeptidase of BoNTA, in words (comparisons) [1] | inhibition at 100 µM [1] [%] | melting point | inhibition at 100 µM [2] [%] | also measured
1 | O=C(Cc1cc(C(=O)c2ccc3cc(-c4ccccc4)[nH]c3c2)sc1-c1ccccc1)NO [Compound 9, N-Hydroxy-2-[2-phenyl-5-(2-phenyl-1H-indole-6-carbonyl)thiophene-3-yl]acetamide] | less potent in inhibiting the endopeptidase than 1 and 2 | – | – | – | –
2 | Nc1cc(C(=O)c2cc(CC(=O)NO)c(-c3ccccc3)s2)ccc1I [Compound 4, 2-[5-(3-Amino-4-iodobenzoyl)-2-phenylthiophene-3-yl]-N-hydroxyacetamide] | more active in inhibiting the endopeptidase than 2 | 40 | > 170 °C (dec.) | 0 | effect on the endopeptidase of BoNTB, in words [2]: no effect
3 | NNC(=O)Cc1cc(C(=O)c2ccc(I)c(N)c2)sc1-c1ccccc1 [Compound 7, [5-(3-Amino-4-iodobenzoyl)-2-phenylthiophene-3-yl]acetic acid hydrazide] | – | – | 159 to 165 °C | – | –
4 | Cl.NCCCCn1c(-c2ccccc2)cc2ccc(C(=O)c3cc(CC(=O)NO)c(-c4ccccc4)s3)cc21 [Compound 12, 2-{5-[1-(4-Aminobutyl)-2-phenyl-1H-indole-6-carbonyl]-2-phenylthiophene-3-yl}-N-hydroxyacetamide hydrochloride] | – | 96 | – | 0 | effect of adding more zinc on the inhibition of BoNTA [1]: no effect; inhibition at 15 µM ([1]; read-out: % inhibition of BoNTA at 15 μM): 48%; effect on the endopeptidase of BoNTB, in words ([2]; hydrochloride): no effect; also recorded: did not inhibit; Ki (BoNTA light chain): 12 ± 2.6 µM
5 | NNC(=O)Cc1cc(C(=O)c2ccc(Br)cc2)sc1-c1ccccc1 [Compound 6, [5-(4-Bromobenzoyl)-2-phenylthiophene-3-yl]acetic acid hydrazide] | – | – | 157 to 161 °C | – | –
6 | O=C(Cc1cc(C(=O)c2ccc(I)c([N+](=O)[O-])c2)sc1-c1ccccc1)NO [Compound 5, 2-[5-(3-Nitro-4-iodobenzoyl)-2-phenylthiophene-3-yl]-N-hydroxyacetamide] | – | – | 147 to 151 °C | – | –
7 | O=C(O)Cc1cc(C(=O)c2ccc3cc(-c4ccccc4)[nH]c3c2)sc1-c1ccccc1 [Compound 8, [2-Phenyl-5-(2-phenyl-1H-indole-6-carbonyl)thiophene-3-yl]acetic acid] | less potent in inhibiting the endopeptidase than 1 and 2 | – | – | – | –
8 | O=C(O)Cc1cc(C(=O)c2ccc(Cl)cc2)sc1-c1ccccc1 [Compound 1, [5-(4-Chlorobenzoyl)-2-phenylthiophene-3-yl]acetic acid] | – | 15 | – | – | –
9 | O=C(Cc1cc(C(=O)c2ccc(Cl)cc2)sc1-c1ccccc1)NO [Compound 2, 2-[5-(4-Chlorobenzoyl)-2-phenylthiophene-3-yl]-N-hydroxyacetamide] | more active in inhibiting the endopeptidase than 1 | 30 | – | 0 | effect on the endopeptidase of BoNTB, in words [2]: no effect

— patent publication US8492428B2 (priority 2005, dated 2013)
